# Assay results taken from patent US11564924B2, “Pharmaceutical composition formed by combining pyridoxamine compound and thiamine compound” (RENASCIENCE CO., LTD., priority 2014, dated 2023).
# Experiments:
# Format in all cases: in vivo, human
# [1] = tested on: vitamin B1 deficiency; assay: Prevention of vitamin B1 deficiency by pyridoxamine compound in combination with thiamine compound; conditions: seven schizophrenia patients; pyridoxamine dihydrochloride 1200 to 1800 mg per day oral for 24 weeks, with fursultiamine 75 mg/day oral from 2 to 21 weeks after start
# [2] = tested on: pentosidine; assay: Plasma pentosidine concentration in schizophrenia patients (HPLC); conditions: Day 169 vs Day 1; nine subjects
# From the text: Drug administration was initiated for nine subjects from whom consent was obtained. The observation period was defined as the period from the day on which consent was obtained (Day −14) to the day 2 weeks after the day of consent (Day 0), and the initial day of drug administration was defined as Day 1. The data of Day 1 is data immediately before the start of administration of the pyridoxamine compound. The drug administration period was defined as the 24-week period from the start of drug administration (Day 1 to Day 169). […]
# In the morning […], on the initial day of drug administration (Day 1), and on Day 15, Day 29, Day 85, and Day 169 after the start of drug administration, blood was drawn from the nine subjects above before administration of the drug. […] The plasma pentosidine concentration was measured according to the method described below. […]
# The samples prepared as described above were diluted 10-fold with Milli-Q water (diluted samples). […] The diluted samples and the diluted pentosidine standard were subjected to HPLC (HPLC apparatus produced by Shimadzu Science) under the following conditions, and analysis of pentosidine was performed with a fluorescence measuring device (SLC-10Avp; equipped with UV and fluorescence detectors). […]
# [3] = Serum pyridoxamine and pyridoxal concentrations in schizophrenia patients during drug administration
# Description: Measurement of the serum pyridoxamine concentration, the serum pyridoxal concentration, and the serum pyridoxine concentration was outsourced to SRL Inc. or Mitsubishi Chemical Medience Corporation (now LSI Medience Corporation).
# Pyridoxamine dihydrochloride was orally administered as a pyridoxamine compound to schizophrenia patients daily, three times a day (morning, noon, and before bedtime) in an amount of 400 mg or 600 mg each time (daily dose of pyridoxamine: about 830 mg or 1250 mg) according to the protocols shown in FIG. 2 (described as “PM dose (mg/one time)” in FIG. 2).
# [4] = tested on: schizophrenia patients; assay: Total PANSS score in schizophrenia patients given the pyridoxamine compound; conditions: for Change from baseline in total PANSS score, Maximum / Change from baseline in total PANSS score, Median / Change from baseline in total PANSS score, Minimum / Change from baseline in total PANSS score, Mean change: FAS; for Change from baseline in total PANSS score, Mean change: 1200-2400 mg per day oral
# From the text: The target subjects (subjects) of this test (administration of a pyridoxamine compound; hereinafter, this is also referred to as “drug administration”) were patients who were diagnosed with schizophrenia and met all of the following conditions (1) to (3):
# Drug administration was initiated for nine subjects from whom consent was obtained. The observation period was defined as the period from the day on which consent was obtained (Day −14) to the day 2 weeks after the day of consent (Day 0), and the initial day of drug administration was defined as Day 1. The data of Day 1 is data immediately before the start of administration of the pyridoxamine compound. The drug administration period was defined as the 24-week period from the start of drug administration (Day 1 to Day 169).
# In the drug administration, pyridoxamine dihydrochloride was used as the pyridoxamine compound and orally administered in an amount of 1200 mg, 1800 mg, or 2400 mg per day (administered three times a day, morning, noon, and before bedtime, in an amount of 400 mg, 600 mg, or 800 mg each time). In the drug administration period, the dose was increased or decreased within the above range according to the condition of each patient.
# The effect of administration of the pyridoxamine compound (drug administration) was evaluated according to the Positive and Negative Syndrome Scale (PANSS) score and the concentration of pentosidine in blood of the schizophrenia patients.
# The PANSS score was determined by SCI-PANSS, which uses a structured interview, according to the Positive and Negative Syndrome Scale (PANSS) manual (translated by Hiroshi Yamada, Kanji Masui, and Hirotsugu Kikumoto; Tokyo: Seiwa Shoten Co., Ltd., 1991). An interview for evaluation was conducted for 30 evaluation items. Each item was scored on a scale of 1 to 7. The sum of the scores was calculated, and the difference between the PANSS score on Day 1 and the PANSS score on each test day was determined. […] The subjects were prohibited from taking hypnotic drugs or antianxiety drugs within 4 hours before PANSS evaluation.
structure (smiles),measurement,setting,value
Cc1ncc(CO)c(CN)c1O.Cl.Cl [pyridoxamine dihydrochloride],findings suggestive of vitamin B1 deficiency,[1],no findings suggestive of vitamin B1 deficiency were observed in any of the seven schizophrenia patients
same,blood pentosidine concentration at the end of administration versus Day 1,[2],lower than that on Day 1 in at least seven subjects
same,"serum pyridoxamine concentration, times higher than at the start of drug administration","[3]; patient ID No. 3, 4 weeks after the start of drug administration",about 7700 times
same,"serum pyridoxamine concentration, times higher than at the start of drug administration","[3]; patient ID No. 6, 8 weeks after the start of drug administration",about 2100 times
same,"Change from baseline in total PANSS score, Maximum",[4]; Day 15 (2 w),12
same,"Change from baseline in total PANSS score, Median",[4]; Day 15 (2 w),3.0
same,"Change from baseline in total PANSS score, Minimum",[4]; Day 15 (2 w),−44
same,"Change from baseline in total PANSS score, Mean change",[4]; Day 15 (2 w),−3.7
same,"Change from baseline in total PANSS score, Maximum",[4]; Day 29 (4 w),10
same,"Change from baseline in total PANSS score, Median",[4]; Day 29 (4 w),1.0
same,"Change from baseline in total PANSS score, Minimum",[4]; Day 29 (4 w),−49
same,"Change from baseline in total PANSS score, Mean change",[4]; Day 29 (4 w),−4.4
same,"Change from baseline in total PANSS score, Maximum",[4]; Day 57 (8 w),13
same,"Change from baseline in total PANSS score, Median",[4]; Day 57 (8 w),1.0
same,"Change from baseline in total PANSS score, Minimum",[4]; Day 57 (8 w),−58
same,"Change from baseline in total PANSS score, Mean change",[4]; Day 57 (8 w),−5.0
same,"Change from baseline in total PANSS score, Maximum",[4]; Day 85 (12 w),21
same,"Change from baseline in total PANSS score, Median",[4]; Day 85 (12 w),−3.0
same,"Change from baseline in total PANSS score, Minimum",[4]; Day 85 (12 w),−65
same,"Change from baseline in total PANSS score, Mean change",[4]; Day 85 (12 w),−7.3
same,"Change from baseline in total PANSS score, Maximum",[4]; Day 113 (16 w),8
same,"Change from baseline in total PANSS score, Median",[4]; Day 113 (16 w),−5.0
same,"Change from baseline in total PANSS score, Minimum",[4]; Day 113 (16 w),−69
same,"Change from baseline in total PANSS score, Mean change",[4]; Day 113 (16 w),−12.2
same,"Change from baseline in total PANSS score, Maximum",[4]; Day 141 (20 w),17
same,"Change from baseline in total PANSS score, Median",[4]; Day 141 (20 w),−1.5
same,"Change from baseline in total PANSS score, Minimum",[4]; Day 141 (20 w),−64
same,"Change from baseline in total PANSS score, Mean change",[4]; Day 141 (20 w),−9.6
same,"Change from baseline in total PANSS score, Maximum",[4]; Day 169 (24 w),14
same,"Change from baseline in total PANSS score, Median",[4]; Day 169 (24 w),−7.5
same,"Change from baseline in total PANSS score, Minimum",[4]; Day 169 (24 w),−69
same,"Change from baseline in total PANSS score, Mean change",[4]; Day 169 (24 w),−11.4
same,"Change from baseline in total PANSS score, Maximum",[4]; Final evaluation time point,14
same,"Change from baseline in total PANSS score, Median",[4]; Final evaluation time point,−5.0
same,"Change from baseline in total PANSS score, Minimum",[4]; Final evaluation time point,−69
same,"Change from baseline in total PANSS score, Mean change",[4]; Final evaluation time point,−10.6
same,PANSS score decreased by an average of,[4]; day 15 after the start of drug administration (Day 15),3.7 points
same,PANSS score decreased by an average of,[4]; day 113 after the start of drug administration (Day 113),12.2 points
same,effect on the symptom of schizophrenia,"[4]; schizophrenia patients, 24-week administration",effective in improving the symptom of schizophrenia
